# Laboratory results as given in US20120021434A1, “METHOD FOR TREATING B CELL REGULATED AUTOIMMUNE DISORDERS” (Synta Pharmaceuticals Corp., priority 2005, published 2012).
# Experiments:
# Type in all cases: cell-based
# [1] = tested on: ICSBP; experiment: ICSBP expression (Western blot)
# Description: The 10% SDS Polyacrylamide gels (Inveitrogen) were transferred to Pure Nitrocellulose membrane (BioRed, Hercules, Calif.). The membranes were blocked with 5% milk in TBST buffer and incubated with anti-c-Rel, anti-p65, anti-p50, anti-ICSBP or anti-PU-1 antibody (all the antibodies were purchased from Santa Cruz) at a dilution of 1:500 for 1 h at room temperature or overnight at 4C. The membranes were washed and incubated with Horseradish Peroxidase-conjugated anti-rabbit IgG or anti-mouse IgG (Amersham, England) at a dilution of 1:2000 at room temperature for 1 h.
# Of the transcription factors that have been analyzed, two factors, ICSBP and c-Rel, seem to be affected by Compound 4/Compound 50 treatment. ICSBP binds indirectly to the Ets-2 site. The primary NF-κB trans-activator for IL-12 is the c-Rel/p50 heterodimer. Other dimers (p65/p50 and p50/p50) either lack activity or have inhibitory functions. Thus, c-Rel plays a role in IL-12 transcription as a result of both activation through NF-κB and its interaction with ICSBP. […] The membranes were blocked with 5% milk in TBST buffer and then incubated with anti-c-Rel, anti-p65, anti-p50, anti-ICSBP or anti-PU-1 antibody (all the antibodies were purchased from Santa Cruz) at a dilution of 1:500 for 1 h at room temperature or overnight at 4° C. The membranes were washed and incubated with Horseradish Peroxidase-conjugated anti-rabbit IgG or anti-mouse IgG (Amersham, England) at a dilution of 1:2000 at room temperature for 1 h.
# (§1) ICSBP, whose expression was reduced by Compound 50, was over-expressed using co-transfection with the IL-12 promoter-Luc report system. The over-expression construct of ICSBP was generated by PCR from cDNA of human PBMC using primers as follow: ICSBP-exp-F: 5′-[…]-3′ (SEQ ID NO:1) and ICSBP-exp-R: 5′-[…]-3′ (SEQ ID NO:2), the resulting PCR products was ligated to pCI vector (Promega).
# [2] = tested on: IL-12 promoter (p40 expression); experiment: IL-12 promoter-Luc reporter with ICSBP over-expression; details: co-transfection of ICSBP construct with IL-12 promoter-Luc reporter
# Description: as §1
# [3] = tested on: Rel-B; experiment: Rel-B nuclear translocation in IFNγ+LPS-stimulated THP1 cells (immunoblot); details: 100 nM, 6 h
# Description: RelB and p52 are two members of Rel family, which are preferentially complexed with each other. To determine the effect of Compound 50 on p52 and Rel-B nuclear translocation, THP1 cells were stimulated with IFNγ+LPS in either the presence or absence of 100 nM Compound 50 and the distribution of p52 and Rel-B was determined by immunoblotting of nuclear at 6 h post-treatment.
# [4] = tested on: p65; experiment: Western blot of THP-1 nuclear extracts: p65; details: IFN-γ plus LPS or IFN-γ plus SAC
# Description: The THP-1 cell, Jurkat cell and RAW264.7 cell line were obtained from American Type Culture Collection (Manassas, Va.). The THP-1 Jurkat cells were cultured in RPMI 1640 (ATCC, Manassas, Va.), supplemented with 10% FCS (ATCC, Manassas, Va.), and 1% penicillin/Streptomycin (Gibco-BRL, New York, N.Y.). The RAW264.7 cells were cultured in DMEM (ATCC, Manassas, Va.) supplemented with 10% FCS (ATCC, Manassas, Va.), and 1% penicillin/Streptomycin (Gibco-BRL, New York, N.Y.). The cells were stimulated with human or murine recombinant IFNγ (100 ng/ml) for 10 h followed by LPS (1 μg/ml) or SAC (0.025%) CpG ([…]) in the presence or absence of Compound 50 at different concentrations for an additional incubation.
# THP-1 cells were suspended in 20 volumes of buffer A containing 10 mM KCl, 10 mM HEPES (pH 7.9), 1 mM MgCl2, 1 mM dithiothreitol (DTT), 0.1% Nonidet p40 (NP-40), and 0.5 mM phenylmethylsulfonyl fluoride (PMSF) and homogenized and centrifuged at 10,000 rpm at 4C afor 5 min. […]
# Of the transcription factors that have been analyzed, two factors, ICSBP and c-Rel, seem to be affected by Compound 4/Compound 50 treatment. […]
# [5] = tested on: p105/p50; experiment: LPS/IFNγ-induced phosphorylation of p105/p50 in THP1 cells (immunoblot); details: THP1, 100 nM, residues Ser-927 and Ser-933
# Description: In this study, we examined the effect of Compound 50 on LPS-induced phosphorylation of the NF-κB members p65 and p105/p50. THP1 monocytic cells were stimulated with IFNγ plus LPS in the presence or absence of 100 nM Compound 50 (30 min, 1 h and 3 h) and whole-cell extracts were immunoblotted using anti-phospho p65 and p105/p50 antibodies to detect the phosphorylated forms of these proteins. […] LPS/IFNγ induced phosphorylation of p65 as early as 30 minutes on residues Ser-276, Ser-468 and […]. Compound 50 had no effect on LPS/IFNγ induced phosphorylation at these sites. […] LPS/IFNγ induced phosphorylation of p105 as early as 30 minutes on residues Ser-927 and Ser-933. Compound 50 had no effect on LPS/IFNγ induced phosphorylation at these sites.
smiles,measurement,setting,value
"Cc1cccc(/C=N/Nc2cc(N3CCOCC3)nc(OCCc3ccccn3)n2)c1 [Compound 50, N-(3-Methyl-benzylidene)-N′-[6-morpholin-4-yl-2-(2-pyridin-2-yl-ethoxy)-pyrimidin-4-yl]-hydrazine]",ICSBP expression,[1],reduced
same,transcription factor ICSBP affected by treatment,[1]; of the transcription factors analyzed,affected
same,inhibition of p40 expression under ICSBP over-expression,[2],decreased the inhibition
same,nuclear Rel-B,[3],slightly increased
same,nuclear p65 protein,[4],increased
same,LPS/IFNγ induced phosphorylation of p105,[5],no effect
